The text below walks through data of patent publication US20210130362A1, “MEDICAL USE OF COMPOUND III” (Boehringer Ingelheim International GmbH, priority 2017, published 2021).

Data set [1] concerns patients with schizophrenia on stable antipsychotic treatment. Description: Multinational, randomised, double-blind, placebo-controlled, parallel group clinical trial of compound III, 12 weeks of treatment. The class given is in vivo, human. Here is the method:
Regarding reducing the exacerbations of symptoms characterizing relapse, including suicidality, the clinical trial disclosed below was designed to show the efficacy of compound III in improvement of cognitive impairment in patients with schizophrenia as compared to placebo. All patients were on stable antipsychotic treatment (see Table 8 in FIGS. 6A-6C). The study was a multinational, multicentre, randomised, double-blind, placebo-controlled, parallel group trial.
Compound III (10, 25 and 50 mg) and matching placebo were supplied as film-coated tablets (formulation 1).
In total, 516 patients with schizophrenia on stable antipsychotic treatment (Table 8 in FIGS. 6A-6C) as described below were randomized into this trial. […]
The primary safety endpoints are as follows: • Occurrence of adverse events (AEs)/serious adverse events (including the abnormalities of physical examination, vital signs, electrocardiogram test and laboratory tests) • Occurrence of protocol-specified adverse events of special interest • Dramatic worsening of disease state as assessed by PANSS • Suicidality as assessed by Columbia Suicidal Severity Rating Scale (C-SSRS) […]

A short description of data set [2]: Intrinsic dissolution rate of compound III. The format is physicochemical. As to conditions: physiologically relevant pH range above pH 4.
Where [3] appears, read: patients with schizophrenia receiving antipsychotic therapy.

Regarding `O=c1[nH]c(Cc2ccccn2)nc2c1cnn2C1CCOCC1` [compound III], the “psychiatric serious adverse events (SAEs): hospitalization for disease worsening (schizophrenia, psychotic disorder) and suicidality leading to hospitalization” value in data set [1] (any arm dosed with compound III (10, 25, 50, 100 mg qd), 12 weeks, treated set, 8/8 (100%) of these SAEs in placebo arm) was “none”. Also, in data set [1] (setting [3]), the “change in intensity and occurrence of suicidal ideation compared to placebo” value is reported as “decrease”; the “change in psychiatric serious adverse events (hospitalization for serious worsening of schizophrenia symptoms) compared to placebo” value was “statistically significant, clinically meaningful decrease”. In addition, the intrinsic dissolution rate result in data set [2] was “low”.
